From US11832638B2, “N-acyl derivatives of gamma amino-butyric acid and beta alanine as food flavouring compounds” (GIVAUDAN SA, priority 2012, dated 2023)

Key:
[1] = Strawberry flavoured sugar sweetened yoghurt; details: 2 ppm, 1.5% fat yoghurt base, 8% sucrose, strawberry flavour 0.015%
Description: Strawberry Flavoured Sugar Sweetened Yoghurt
The base consisted of a 1.5% fat yoghurt base, sweetened with 8% sucrose by weight, flavoured with a proprietary strawberry flavour @ 0.015%.

[2] = Comparison in a strawberry drink; details: 0.5 ppm, 7% sucrose, 0.1% citric acid, strawberry flavour 0.015%
Description: Comparison in a Strawberry Drink
Base is 7% sucrose, 0.1% citric acid, and a proprietary strawberry flavour @0.015%

CCCCCCCCCCCCCCCCCC(=O)NCCCC(=O)O [C18:0-gaba]
taste description [1]: juicy full, jammy
taste description [2]: mild creamy, fruity, juicy and long lasting
